Results published in patent US20180267043A1, “USE OF BIOMARKERS FOR PREDICTING CLINICAL SENSITIVITY TO CANCER TREATMENT” (CELGENE CORPORATION, priority 2014, published 2018).

Experiments:
[1] = biological target: T1, human CRBN isoform 2 (IKZF1/3, GSPT1/2 as substrates) (Homo sapiens, UniProt Q96SW2, E377V); assay: Substrate degradation in CRBN−/− cells expressing human CRBN isoform 2 or mutants; format: cell-based; conditions: hCRBNiso2 E376V; 1 μM Compound C
T1 construct: expressed in transfected cells; host or cells: CRBN-/- cells (elsewhere: 293FT, CRISPR)
Description: They were co-expressed together with GFP in CRBN −/− cells. These cells also expressed human CRBN isoform 2, or various specific mutants (hCRBNiso2 E376V, hCRBNiso2 V387I, or hCRBNiso2 W385A) by transfection with corresponding DNA.

[2] = test system: Aiolos, CK1a, GSPT1 in OCI-LY10; assay: Western blot analysis in lymphoma cell line OCI-LY10; format: cell-based; conditions: OCI-LY10, 100 μM Compound C, 6 hours
Description: Cells were harvested with RIPA buffer, and proteins from cell lysates were separated by 10% sodium dodecyl sulfate polyacrylamide (SDS-PAGE) gel electrophoresis (Bio-Rad), then transferred to PVDF membranes (Invitrogen). Immunoblots were probed with antibodies recognizing Aiolos (9-9-7; Celgene), CK1a (Abcam), GSPT1 (Sigma), ZFP91 (LSBio) and β-actin (Li-Cor). Signals were detected with a Li-Cor Odyssey imager.

XBP1 and ATF6 pathways [3] = assay: RNA level of XBP1 and ATF6 pathway components in KG1 cells; format: cell-based, human; conditions: KG1, 20 nM, 2, 4, or 6 hours
Experimental: The mechanism of Compound C-activated XBP1 and ATF6 pathways of UPR was studied in KG1 cells. Cells were treated with DMSO or 20 nM Compound C for 2, 4, or 6 hours. The RNA level of variant cellular components along the XBP1 and ATF6 pathways was measured and normalized with GAPDH.

RPMI-8226 [4] = assay: Sensitivity to compound-induced ER stress and apoptosis, RPMI-8226; format: cell-based, human
Experimental: The GSPT1 dependency was shown by GSPT1-specific shRNA knockdown experiment. The GSPT1 degradation efficiency was shown by Western Blot. The induction of ATF3 or DDIT3 was measured by quantitative RT-PCR. […] Time needed for Compound C-induced ER stress or Compound C-induced apoptosis was summarized. […] High ER demand may contribute to the sensitivity of certain cancer cells to the treatment of Compound C.

[5] = test system: GSPT1, IKZF1, IKZF3, UPR or apoptosis pathways; assay: Protein level of UPR and apoptosis components in DF15 cells; format: cell-based, human; conditions: DF15, 20 nM, 5 or 10 hours
Experimental: Cells were treated with DMSO alone or 20 nM Compound C. After 5 or 10 hours, the expression level of various cellular components along UPR or apoptosis pathways was measured. […] Loss of BIP immunoreactivity indicates an induction of UPR.

XBP1 and ATF6 pathways [6] = assay: RNA level of XBP1 and ATF6 pathway components in DF15 MM cells; format: cell-based, human; conditions: DF15, 20 nM, 5, 10, or 23 hours
Experimental: The mechanism of Compound C-activated XBP1 and ATF6 pathways was studied in DF15 MM cells. Cells were treated with DMSO or 20 nM Compound C for 5, 10, or 23 hours. The RNA level of variant cellular components along the XBP1 and ATF6 pathways was measured and normalized with GAPDH.

[7] = test system: normal peripheral blood mononuclear cell (PBMC); assay: Response of normal PBMC: GSPT1, ATF3, DDIT3 and apoptosis indicators; format: cell-based; conditions: 20 hours
Experimental: The response of PBMC to Compound C treatment was monitored by measuring the expression of GSPT1, ATF3, DDIT3, and downstream apoptosis indicators in PBMC. PBMCs were treated with 1 nM, 10 nM, 100 nM, or 1000 nM of Compound C for 20 hours. […] Thus, GSPT1, ATF3, DDIT3, cleaved Caspase-3, and cleaved PARP can serve as biomarkers predicting the toxicity of Compound C.

GSPT1 = biological target: T2, GSPT1 (Homo sapiens, UniProt P15170); assay: GSPT1 expression level in HEK 293FT cells after compound treatment; format: cell-based; conditions: CRBN+/+ cells, 10 hours, 100 nM or 1000 nM, compared to CRBN−/− cells
T2 construct: endogenous in cells; host or cells: HEK 293FT cells (CRBN+/+)

DF15 = assay: CellTiter-Glo cell viability assay after GSPT1 knockdown, DF15; format: cell-based, human; conditions: DF15 expressing shGSPT1-1 or shGSPT1-3 vs parental or control shRNA, 0.01 nM to 0.1 μM, day 9
Experimental: (§1) The effect of depletion of GSPT1 on the anti-proliferative effect of Compound C was determined in human multiple myeloma (MM) cell lines DF15 and RPMI-8226. Treatment compounds were titrated from 0.01 nM to 0.1 μM. Cell proliferation was measured by the CellTiter-Glo cell viability assay (RLU-Relative Luminescent Unit) at day 9 after GSPT1 knockdown by shGSPT1-1 or shGSPT1-3.

XBP1 and ATF6 pathways [8] = assay: RNA level of XBP1 and ATF6 pathway components in 293FT HEK cells; format: cell-based, human; conditions: 1 nM or 10 nM, 24 hours
Experimental: The mechanism of Compound C-activated XBP1 and ATF6 pathways was studied in 293FT HEK cells. Parental cells, CRBN−/− cells, cells expressing control shRNA, or cells expressing GSPT1-specific shRNA were treated with DMSO, 1 nM, or 10 nM Compound C. The RNA level of variant cellular components along the XBP1 and ATF6 pathways was measured and normalized with GAPDH at 24 hours after treatment.

GSPT1 and eRF1 [9] = assay: Immunoblotting of GSPT1 and eRF1 in 293FT HEK cells; format: cell-based, human; conditions: CRBN−/− cells with CRBNiso2 or CRBNiso2 W385A mutant
Experimental: (§2) CRBN+/+(293FT parental) cells were treated in parallel with CRBN−/− (CRISPR) cells, CRBN−/− cells expressing CRBN isoform 2, and CRBN−/− cells expressing CRBN isoform 2 with a W385A mutation.

GSPT1 and eRF1 [10] = biological target: T3, GSPT1 and eRF1 (Homo sapiens, UniProt P15170+); assay: as above; format: cell-based
T3 construct: endogenous in cells; host or cells: 293FT HEK cells
Experimental: as §2

RPMI-8226 [11] = assay: CellTiter-Glo cell viability assay after GSPT1 knockdown, RPMI-8226; format: cell-based, human; conditions: RPMI-8226 expressing shGSPT1-1 or shGSPT1-3 vs parental or control shRNA, 0.01 nM to 0.1 μM, day 9
Experimental: as §1

[12] = PBMC, 1 nM, 10 nM, 100 nM, or 1000 nM
[13] = 293FT parental and control shRNA cells

T2 sequence (P15170 whole entry): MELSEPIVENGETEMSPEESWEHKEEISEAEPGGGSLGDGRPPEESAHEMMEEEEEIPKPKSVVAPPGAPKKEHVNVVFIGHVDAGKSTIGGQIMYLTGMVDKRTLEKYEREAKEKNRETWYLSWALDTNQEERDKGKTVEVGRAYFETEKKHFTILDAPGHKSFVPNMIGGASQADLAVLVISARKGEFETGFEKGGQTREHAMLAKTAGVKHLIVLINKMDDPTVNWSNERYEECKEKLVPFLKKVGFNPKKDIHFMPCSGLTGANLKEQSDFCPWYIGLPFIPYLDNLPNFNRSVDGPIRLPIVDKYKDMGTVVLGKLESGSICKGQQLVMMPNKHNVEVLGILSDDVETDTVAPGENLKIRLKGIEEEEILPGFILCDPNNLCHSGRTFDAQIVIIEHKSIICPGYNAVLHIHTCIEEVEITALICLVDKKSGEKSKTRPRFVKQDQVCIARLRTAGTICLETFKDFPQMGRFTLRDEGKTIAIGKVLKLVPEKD
T2 sequence (Q96SW2 whole entry, further chain): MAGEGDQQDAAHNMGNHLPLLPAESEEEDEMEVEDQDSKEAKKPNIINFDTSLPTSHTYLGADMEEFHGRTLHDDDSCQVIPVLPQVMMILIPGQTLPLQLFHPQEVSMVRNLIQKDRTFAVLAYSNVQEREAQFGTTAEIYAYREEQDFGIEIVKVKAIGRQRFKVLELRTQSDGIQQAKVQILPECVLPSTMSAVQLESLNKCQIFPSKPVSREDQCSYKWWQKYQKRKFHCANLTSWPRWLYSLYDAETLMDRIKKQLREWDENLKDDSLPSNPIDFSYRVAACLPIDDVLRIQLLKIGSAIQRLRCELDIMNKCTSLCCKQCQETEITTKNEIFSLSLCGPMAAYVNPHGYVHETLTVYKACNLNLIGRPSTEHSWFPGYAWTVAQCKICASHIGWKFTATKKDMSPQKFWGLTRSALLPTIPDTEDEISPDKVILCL
T2 sequence (Q16531 whole entry partner): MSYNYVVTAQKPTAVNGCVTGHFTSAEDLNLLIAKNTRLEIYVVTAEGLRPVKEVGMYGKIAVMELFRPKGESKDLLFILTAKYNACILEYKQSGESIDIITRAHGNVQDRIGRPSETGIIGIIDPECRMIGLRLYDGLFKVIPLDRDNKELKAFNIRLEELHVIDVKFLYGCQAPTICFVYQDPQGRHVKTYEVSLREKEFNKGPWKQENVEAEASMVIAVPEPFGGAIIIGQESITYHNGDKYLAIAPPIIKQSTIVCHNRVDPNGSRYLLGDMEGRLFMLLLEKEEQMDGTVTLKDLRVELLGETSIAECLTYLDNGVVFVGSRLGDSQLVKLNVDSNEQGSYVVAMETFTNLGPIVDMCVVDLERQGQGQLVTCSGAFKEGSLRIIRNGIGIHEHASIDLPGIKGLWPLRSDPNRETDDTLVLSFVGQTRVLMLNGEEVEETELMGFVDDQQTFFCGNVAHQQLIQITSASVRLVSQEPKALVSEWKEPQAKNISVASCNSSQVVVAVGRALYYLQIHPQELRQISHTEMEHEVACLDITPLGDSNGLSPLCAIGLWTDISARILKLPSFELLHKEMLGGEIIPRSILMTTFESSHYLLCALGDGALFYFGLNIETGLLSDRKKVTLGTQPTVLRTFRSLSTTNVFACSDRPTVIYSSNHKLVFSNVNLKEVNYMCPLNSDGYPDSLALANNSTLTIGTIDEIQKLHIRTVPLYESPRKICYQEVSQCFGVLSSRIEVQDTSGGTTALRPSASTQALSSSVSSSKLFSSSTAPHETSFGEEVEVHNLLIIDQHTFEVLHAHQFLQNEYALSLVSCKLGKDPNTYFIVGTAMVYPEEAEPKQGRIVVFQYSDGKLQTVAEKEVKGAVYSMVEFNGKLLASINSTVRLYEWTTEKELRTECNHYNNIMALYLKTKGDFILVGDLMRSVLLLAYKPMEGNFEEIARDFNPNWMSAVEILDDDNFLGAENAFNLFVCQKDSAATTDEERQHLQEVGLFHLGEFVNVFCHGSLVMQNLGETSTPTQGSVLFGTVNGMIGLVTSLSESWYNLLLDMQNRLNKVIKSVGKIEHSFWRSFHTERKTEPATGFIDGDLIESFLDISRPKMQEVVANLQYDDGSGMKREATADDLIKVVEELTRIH
T1 sequence (Q96SW2 1-441 isoform Q96SW2-2 E376V): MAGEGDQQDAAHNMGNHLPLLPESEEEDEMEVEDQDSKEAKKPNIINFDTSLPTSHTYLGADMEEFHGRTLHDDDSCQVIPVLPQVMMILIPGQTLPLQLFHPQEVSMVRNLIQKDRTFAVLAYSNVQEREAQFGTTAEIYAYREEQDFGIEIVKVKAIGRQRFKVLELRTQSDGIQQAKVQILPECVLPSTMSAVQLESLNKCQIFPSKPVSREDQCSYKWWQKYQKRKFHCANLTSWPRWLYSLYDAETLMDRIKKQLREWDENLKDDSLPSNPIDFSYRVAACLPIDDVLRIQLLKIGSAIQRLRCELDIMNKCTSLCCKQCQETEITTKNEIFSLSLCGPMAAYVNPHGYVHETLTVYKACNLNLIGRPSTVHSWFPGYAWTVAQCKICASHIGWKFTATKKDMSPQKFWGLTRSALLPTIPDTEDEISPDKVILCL
T1 sequence (Q16531 whole entry partner, canonical isoform): as the sequence (Q16531 whole entry partner) above

Cc1ccc(NC(=O)NCc2ccc3c(c2)CN(C2CCC(=O)NC2=O)C3=O)cc1Cl (stereo not drawn) [Compound C, 1-(3-chloro-4-methylphenyl)-3-((2-(2,6-dioxopiperidin-3-yl)-1-oxoisoindolin-5-yl)methyl)urea] was tested, and the “Degradation of GSPT1/2” value [1] was “abolishes Compound C-induced degradation of GSPT1/2”, the “Aiolos and CK1a protein levels” value [2] was “also reduce” and the GSPT1 protein level [2] was “reduces”. The “RNA level of ATF6 pathway components (XBP1)” value (XBP1 and ATF6 pathways [3]) was “induces expression”, the “RNA level of XBP1 pathway components (SEC24D, DNAJB9, EDEM1, XBP1)” value (XBP1 and ATF6 pathways [3]) was “induces expression” and the “Sensitivity to compound-induced ER stress and apoptosis” value (RPMI-8226 [4]) was “resistant to Compound C-induced ER stress and apoptosis”. For the same compound, the “Degradation of GSPT1, IKZF1, and IKZF3” value [5] was “induces degradation of GSPT1, IKZF1, and IKZF3”, the “Immunoreactivity of antibodies recognizing KDEL motif and BIP C-terminal epitope” value [5] was “loss of immunoreactivity” and the “Level of pEIF2α, ATF4, ATF3, DDIT3, cleaved caspase 3, and cleaved PARP” value [5] was “increases the level”. For the same compound, the “RNA level of ATF6 pathway components (XBP1, EDEM1, HYOU1, HSPA5)” value (XBP1 and ATF6 pathways [6]) was “induces expression”, the “RNA level of XBP1 pathway components (SEC24D, DNAJB9, XBP1, EDEM1, HYOU1)” value (XBP1 and ATF6 pathways [6]) was “induces expression” and the “Cleaved Caspase-3” value [7, 12] was “increasing cleaved Caspase-3”. The “Expression of GSPT1” value [7, 12] was “decreases the expression of GSPT1”, the “Level of p-EIF2α, ATF3 and DDIT3” value [7, 12] was “increases the level” and the Apoptosis ([7]; normal PBMC) was “induces apoptosis”. For the same compound, the GSPT1 expression level (GSPT1) was “GSPT1 is degraded in CRBN+/+ cells”, the Anti-proliferative effect (DF15) was “increased anti-proliferative effect” and the “RNA level of ATF6 pathway components (XBP1, EDEM1, EDEM2, HYOU1, HSPA5)” value (XBP1 and ATF6 pathways [8]; [13]) was “induces expression”. For the same compound, the “RNA level of XBP1 pathway components (SEC24D, DNAJB9, DNAJC6, XBP1, EDEM1, EDEM2, HYOU1)” value (XBP1 and ATF6 pathways [8]; [13]) was “induces expression”, the “RNA level of XBP1 and ATF6 pathway components” value (XBP1 and ATF6 pathways [8]; cells with GSPT1 knockdown) was “This induction effect increases” and the “Degradation of GSPT1 and eRF1” value (GSPT1 and eRF1 [9]) was “restores Compound C-induced degradation of GSPT1 and eRF1”. For the same compound, the “Degradation of GSPT1 and eRF1” value (GSPT1 and eRF1 [10]; CRBN+/+ (293FT parental) cells) was “induces degradation of GSPT1 and eRF1 in CRBN+/+ cells”, the “Degradation of GSPT1 and eRF1” value (GSPT1 and eRF1 [10]; CRBN+/+ cells with overexpression of GSPT1) was “reduces this degradation effect” and the Anti-proliferative effect (RPMI-8226 [11]) was “increased anti-proliferative effect”.
